pEC50: −log10 of the molar value.

For the first test, the system named is HT-1080 cells. In words: HT-1080 cell viability assay (ferroptosis induced by RSL3, Cell Titer-Glo). The class given is cell-based. To be noted: Homo sapiens, HT-1080, 20 h, ferroptosis inducer RSL3, 20 hours, ferroptosis inhibitory activity, Table 2. The method, boiled down: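 EC50 fitted by sigmoidal dose-response regression on luminescent viability data normalized to untreated cells. Compounds ran as a 10-point, 3-fold series from 1.1 μM alongside RSL3 for 20 hours, after overnight seeding.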
In turn, `C[C@@H](O)[C@H](N)CNC1CCC(Nc2ccc(C(C)(C)C)cc2)CC1` (stereo partly drawn) [Compound 341, (2R, 3R)-3-amino-4-((4-((4-(tert-butyl)phenyl)amino)cyclohexyl)amino) butan-2-ol] gave a pEC50 of 7.00 to 10.00.

In the case of `NCC1CCC(Nc2ccc3c(c2)CCC3)CC1` (centres unmarked) [Compound 235, N-(4-(aminomethyl)cyclohexyl)-2,3-dihydro-1H-inden-5-amine], the pEC50 is 7.00 to 10.00.

With `NC1CCC(Nc2ccc(N3CCC(C(F)(F)F)CC3)c(OCCO)c2)CC1` (centres unmarked) [Compound 416, (5-((4-aminocyclohexyl)amino)-2-(4-(trifluoromethyl)piperidin-1-yl)phenoxy) ethan-1-ol], the negative-log EC50 (pEC50) was 7.00 to 10.00.

Regarding `CC1(C)CCC(c2ccc(NC3CCC(CNC(=O)[C@H]4CC(=O)NC(=O)N4)CC3)cc2)CC1` (single isomer, unassigned) [Compound 148A], the pEC50 is 7.00 to 10.00.

Regarding `NC1C[C@@H]2CC(Nc3ccc(N4CCC(C(F)(F)F)CC4)cc3F)C[C@@H]2C1` (stereo partly drawn) [Compound 372, (3aR, 6aS)-N2-(2-fluoro-4-(4-(trifluoromethyl)piperidin-1-yl)phenyl)octahydropentalene-2,5-di amine], the negative-log EC50 (pEC50) was 7.00 to 10.00.

Regarding `Cc1nc(N2CC(C)OC(C)C2)ccc1NCCCC1CCC(N)CC1` (centres unmarked) [Compound 526, N-(3-((1r,4s)-4-aminocyclohexyl)propyl)-6-(2,6-dimethylmorpholino)-2-methyl pyridin-3-amine], the pEC50 was 7.00 to 10.00.

The compound `CC1(C)CCC(c2ccc(NCCN3CCCC3=O)cc2)CC1` [Compound 104, 1-(2-((4-(4,4-dimethylcyclohexyl)phenyl)amino)ethyl) pyrrolidin-2-one] had a pEC50 of 6.00 to 7.00.

For `Cc1nc(N2CC(C)N(CC(F)(F)F)C(C)C2)ccc1NC1CC2(CC(N)C2)C1` (centres unmarked) [Compound 493, N2-(6-(3,5-dimethyl-4-(2,2,2-trifluoroethyl)piperazin-1-yl)-2-methylpyridin-3-yl)spiro[3.3]heptane-2,6-diamine], the pEC50 was 7.00 to 10.00.

Compound `Cc1cc(NC[C@H]2CC[C@H](N)CC2)cc(F)c1N1CC(C)OC(C)C1` (some centres unmarked) [Compound 464, N-(((1r,4r)-4-aminocyclohexyl)methyl)-4-(2,6-dimethylmorpholino)-3-fluoro-5-methylaniline] had a pEC50 of 7.00 to 10.00.

As for `CCCc1ccc(NC2CCC(N)CC2)cc1` (single isomer, unassigned) [Compound 135A, N1-(4-propylphenyl)cyclohexane-1,4-diamine], the negative logarithm of the EC50 (pEC50) was 6.00 to 7.00.

As for `CC1(C)CCC(c2ccc(NCCCN)cc2)CC1` [Compound 209, 1-N-(4-(4,4-dimethylcyclohexyl)phenyl)propane-1,3-diamine], the pEC50 is 7.00 to 10.00.

`CCC(C)(C)c1ccc(NC2CCC(C)(N)CC2)cc1` (centres unmarked) [Compound 172, 1-methyl-N4-(4-(tert-pentyl)phenyl)cyclohexane-1,4-diamine] showed a pEC50 of 7.00 to 10.00.

With `CC1CN(c2ccc(NC[C@H]3CC[C@H](N)CC3)c(C(F)(F)F)c2)CC(C)O1` (some centres unmarked) [Compound 466, N-(((1r,4r)-4-aminocyclohexyl)methyl)-4-(2,6-dimethylmorpholino)-2-(trifluoromethyl)aniline], the pEC50 was 6.00 to 7.00.

For `NC1CCC(Nc2ccc3c(c2)OCC3)CC1` (centres unmarked) [Compound 166, N1-(2,3-dihydrobenzofuran-6-yl)cyclohexane-1,4-diamine], the pEC50 was 5.00 to 6.00.

The same test, now with this note: Homo sapiens, HT-1080, 20 h, ferroptosis inducer RSL3, 20 hours, ferroptosis inhibitory activity, Table 3.
`N[C@H]1CC[C@H](CNc2ccc(N3CCN(CC(F)(F)F)CC3)cc2F)CC1` [Compound 586, N-(((1r,4r)-4-aminocyclohexyl)methyl)-2-fluoro-4-(4-(2,2,2-trifluoroethyl)piperazin-1-yl)aniline] showed a pEC50 of 7.00 to 10.00.

Compound `CC1CN(c2ccc(NC3CC(N)C3)cc2F)CC(C)N1CC(F)(F)F` (centres unmarked) [Compound 604, N1-(4-(3,5-dimethyl-4-(2,2,2-trifluoroethyl)piperazin-1-yl)-3-fluorophenyl)cyclobutane-1,3-diamine] gave a negative-log EC50 (pEC50) of 7.00 to 10.00.

With `NC1CC2(C1)CC(Nc1ccc3cc(N4CCOCC4)ccc3c1)C2` (centres unmarked) [Compound 614, N2-(6-morpholinonaphthalen-2-yl)spiro[3.3]heptane-2,6-diamine], the negative logarithm of the EC50 (pEC50) is 7.00 to 10.00.
